The target of one assay is full length MALT1 (Homo sapiens (Human), UniProt Q9UDY8). Briefly: MALT1 Biochemical Assay. To be noted: 15 nM enzyme, 30 μM peptide substrate Ac-Leu-Arg-Ser-Arg-Rh110-dPro, 30 min pre-incubation, 60 min reaction; mean value if tested more than once. In a few lines:
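Full-length human MALT1 was pre-incubated with compound for 30 min, then cleaved a fluorogenic peptide for 60 min in 50 mM Hepes pH 7.5 with 0.8 M sodium citrate and 1 mM DTT. The reaction was quenched with 10 mM iodoacetate and fluorescence was read at 485/520 nm. IC50 came from four-parameter logistic fits of percent inhibition.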

Assay [1] relates to IL-2 in Jurkat (ATCC, clone E6.1) cells stimulated with anti-CD3/28/2. In words: Jurkat IL-2 Assay. The conditions noted are these: Homo sapiens; IL-2 inhibition, Jurkat cells, 30 min compound then anti-CD3/28/2 stimulation for 24 hours; mean value if tested more than once; read-out: IC50. Format: cell-based. In a few lines: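 Jurkat E6.1 T cells in RPMI/10% FBS (below passage 25) were preincubated with a compound dose-response for 30 min, then stimulated with soluble anti-CD3/28/2 for 24 h. IL-2 in the supernatant was measured by MSD immunoassay and viability by CellTiter-Glo luminescence. IC50 came from a 4-parameter fit, reported as ranges, with the mean used where tested repeatedly.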

Data on seven molecules can be found in patent US20230391781A1, “MALT1 MODULATORS AND USES THEREOF” (Rheos Medicines, Inc., priority 2020, published 2023).

Molecules are shown by their SMILES. Counter-ions that a name gives are not always drawn. Some results are limits rather than exact numbers.

Chain of full length MALT1 (Q9UDY8 whole entry): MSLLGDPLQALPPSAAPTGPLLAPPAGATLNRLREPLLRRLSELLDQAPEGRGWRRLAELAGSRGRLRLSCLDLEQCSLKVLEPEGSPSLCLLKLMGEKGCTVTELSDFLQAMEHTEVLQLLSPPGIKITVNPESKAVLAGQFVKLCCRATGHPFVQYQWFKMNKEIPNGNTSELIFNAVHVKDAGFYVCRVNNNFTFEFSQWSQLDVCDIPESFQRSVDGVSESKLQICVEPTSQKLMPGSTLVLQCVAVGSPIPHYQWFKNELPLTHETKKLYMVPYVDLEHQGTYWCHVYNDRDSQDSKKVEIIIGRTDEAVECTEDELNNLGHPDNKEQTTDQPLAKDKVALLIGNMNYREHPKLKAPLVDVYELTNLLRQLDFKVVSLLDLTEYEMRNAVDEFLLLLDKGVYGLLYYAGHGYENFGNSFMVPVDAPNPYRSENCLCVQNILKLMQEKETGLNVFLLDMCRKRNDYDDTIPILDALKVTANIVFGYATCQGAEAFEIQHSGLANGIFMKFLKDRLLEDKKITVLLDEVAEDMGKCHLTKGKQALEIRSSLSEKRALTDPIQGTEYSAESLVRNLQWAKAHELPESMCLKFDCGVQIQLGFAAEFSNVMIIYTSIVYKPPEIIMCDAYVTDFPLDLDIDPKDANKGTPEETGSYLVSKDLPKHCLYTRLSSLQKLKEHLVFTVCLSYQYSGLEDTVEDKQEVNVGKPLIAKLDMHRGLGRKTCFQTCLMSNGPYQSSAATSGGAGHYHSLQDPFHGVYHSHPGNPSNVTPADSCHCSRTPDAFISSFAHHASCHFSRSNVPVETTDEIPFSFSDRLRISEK

In the case of `CO[C@@H](C)c1c(Nc2ccc([C@H](N(C)C(=O)C3CCN(C(=O)C4CC4)C3)C(F)(F)F)cc2)cnc2nc(Cl)nn12` (stereo partly drawn) [Compound 4.3, N-[(1S)-1-[4-({2-chloro-7-[(1S)-1-methoxyethyl]-[1,2,4]triazolo[1,5-a]pyrimidin-6-yl}amino)phenyl]-2,2,2-trifluoroethyl]-1-cyclopropanecarbonyl-N-methylpyrrolidine-3-carboxamide], the IC50 is under 100 nM against full length MALT1 and 100 to 1000 nM in assay [1].

In the case of `CO[C@@H](C)c1c(Nc2ccc([C@H](N(C)C(=O)C3CCCN(C)C3)C(F)(F)F)cc2)cnc2nc(Cl)nn12` (stereo partly drawn) [Compound 5.2, N—((S)-1-(4-((2-chloro-7-((S)-1-methoxyethyl)-[1,2,4]triazolo[1,5-a]pyrimidin-6-yl)amino)phenyl)-2,2,2-trifluoroethyl)-N,1-dimethylpiperidine-3-carboxamide], the results for the IC50 (at full length MALT1; in assay [1]) were 100 to 1000 nM and over 1000 nM, respectively.

On to `CO[C@@H](C)c1c(Nc2ccc([C@H](N(C)C(=O)C3CCN(C)C3)C(F)(F)F)cc2)cnc2nc(Cl)nn12` (stereo partly drawn) [Compound 5.3, N-[(1S)-1-[4-({2-chloro-7-[(1S)-1-methoxyethyl]-[1,2,4]triazolo[1,5-a]pyrimidin-6-yl}amino)phenyl]-2,2,2-trifluoroethyl]-N,1-dimethylpyrrolidine-3-carboxamide hydrochloride], for which the 50% inhibitory concentration (IC50) against full length MALT1 is 100 to 1000 nM; in assay [1], over 1000 nM.

Consider `CO[C@@H](C)c1c(Nc2ccc([C@H](N(C)C(=O)[C@H]3CC[C@H](O)CC3)C(F)(F)F)cc2)cnc2nc(Cl)nn12` [Compound 6.1, (1r,4S)—N—((S)-1-(4-((2-chloro-7-((S)-1-methoxyethyl)-[1,2,4]triazolo[1,5-a]pyrimidin-6-yl)amino)phenyl)-2,2,2-trifluoroethyl)-4-hydroxy-N-methylcyclohexane-1-carboxamide], for which the IC50 was under 100 nM against full length MALT1 and 100 to 1000 nM in assay [1].

For the molecule `CC(C)c1c(Nc2ccc([C@H](N(C)C(=O)[C@H]3CC[C@H](C(=O)O)CC3)C(F)(F)F)cc2)cnc2nc(Cl)nn12` [Compound 7.2, (1S,4r)-4-(((S)-1-(4-((2-chloro-7-isopropyl-[1,2,4]triazolo[1,5-a]pyrimidin-6-yl)amino)phenyl)-2,2,2-trifluoroethyl)(methyl)carbamoyl)cyclohexane-1-carboxylic acid ammonia salt], the IC50 on full length MALT1 was under 100 nM; in assay [1] it was 100 to 1000 nM.

With `CO[C@@H](C)c1c(Nc2ccc([C@H](N(C)C(=O)[C@H]3C[C@H](C(=O)O)C3)C(F)(F)F)cc2)cnc2nc(Cl)nn12` [Compound 7.3, (1S,3r)-3-(((S)-1-(4-((2-chloro-7-((S)-1-methoxyethyl)-[1,2,4]triazolo[1,5-a]pyrimidin-6-yl)amino)phenyl)-2,2,2-trifluoroethyl)(methyl)carbamoyl)cyclobutane-1-carboxylic acid], the IC50 against full length MALT1 was 100 to 1000 nM; in assay [1], over 1000 nM.

For the molecule `CO[C@H](C)c1c(Nc2ccc([C@H](N(C)C(=O)C3CCS(=O)(=O)CC3)C(F)(F)F)cc2)cnc2nc(Cl)nn12` [Compound 10.1, N—((S)-1-(4-((2-chloro-7-((R)-1-methoxyethyl)-[1,2,4]triazolo[1,5-a]pyrimidin-6-yl)amino)phenyl)-2,2,2-trifluoroethyl)-N-methyltetrahydro-2H-thiopyran-4-carboxamide 1,1-dioxide], the half-inhibitory concentration (IC50) (against full length MALT1; in assay [1]) was 100 to 1000 nM throughout.

The IC50 is the midpoint of a concentration-inhibition curve.
